Laboratory results from ChEMBL document CHEMBL1201862, “PubChem BioAssay data set” (2004).
Active and inactive are the calls of the source.

Legend:
cells [1] = format: functional, cell-based
cells [2] = format: functional, cell-based; remark: listed apart in the source
[3] = biological target: T1, Serine/threonine-protein phosphatase (Candida dubliniensis (strain CD36 / CBS 7987 / NCPF 3949 / NRRLY-17841) (Yeast), UniProt B9W6M3); experiment: blockers of CaCl2-induced CDRE-lacZ signaling – S. cerevisiae, luminescence, secondary, dose response (AID 2388); format: functional, cell-based;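 further: yeast reporter cells carrying a calcineurin-responsive lacZ construct stimulated with calcium chloride; luminescent beta-galactosidase reporter signal in whole cells rather than isolated phosphatase activity; potency for inhibition where a drop in reporter signal means calcineurin blockade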
T1 sequence (B9W6M3 whole entry): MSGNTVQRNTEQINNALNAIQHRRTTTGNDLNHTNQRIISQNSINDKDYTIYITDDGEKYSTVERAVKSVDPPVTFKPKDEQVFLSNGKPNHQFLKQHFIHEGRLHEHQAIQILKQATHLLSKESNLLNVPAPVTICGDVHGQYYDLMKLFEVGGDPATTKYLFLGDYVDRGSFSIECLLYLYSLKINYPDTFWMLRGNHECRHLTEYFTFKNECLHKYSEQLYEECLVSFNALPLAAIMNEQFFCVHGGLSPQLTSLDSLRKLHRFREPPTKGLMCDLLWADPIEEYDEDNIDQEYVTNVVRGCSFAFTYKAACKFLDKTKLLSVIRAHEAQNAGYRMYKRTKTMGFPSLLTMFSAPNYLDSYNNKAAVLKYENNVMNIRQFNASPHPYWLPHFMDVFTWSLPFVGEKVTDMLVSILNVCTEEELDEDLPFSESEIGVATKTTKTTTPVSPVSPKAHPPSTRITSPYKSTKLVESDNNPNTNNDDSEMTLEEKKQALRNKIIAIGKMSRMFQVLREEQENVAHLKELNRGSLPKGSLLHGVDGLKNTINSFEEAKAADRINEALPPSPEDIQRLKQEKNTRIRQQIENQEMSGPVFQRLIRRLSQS

[4] = biological target: T2, Microphthalmia-associated transcription factor (Homo sapiens, UniProt O75030); experiment: reducers of TRPM1 reporter luminescence, concentration series – cell-based, SK-MEL-5, cherry-picked, set 3, MITF inhibitor project, dose response (AID 493073); format: functional;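 further: SK-MEL-5 melanoma cells with luciferase driven by the MITF target TRPM1 promoter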
T2 sequence (O75030 whole entry): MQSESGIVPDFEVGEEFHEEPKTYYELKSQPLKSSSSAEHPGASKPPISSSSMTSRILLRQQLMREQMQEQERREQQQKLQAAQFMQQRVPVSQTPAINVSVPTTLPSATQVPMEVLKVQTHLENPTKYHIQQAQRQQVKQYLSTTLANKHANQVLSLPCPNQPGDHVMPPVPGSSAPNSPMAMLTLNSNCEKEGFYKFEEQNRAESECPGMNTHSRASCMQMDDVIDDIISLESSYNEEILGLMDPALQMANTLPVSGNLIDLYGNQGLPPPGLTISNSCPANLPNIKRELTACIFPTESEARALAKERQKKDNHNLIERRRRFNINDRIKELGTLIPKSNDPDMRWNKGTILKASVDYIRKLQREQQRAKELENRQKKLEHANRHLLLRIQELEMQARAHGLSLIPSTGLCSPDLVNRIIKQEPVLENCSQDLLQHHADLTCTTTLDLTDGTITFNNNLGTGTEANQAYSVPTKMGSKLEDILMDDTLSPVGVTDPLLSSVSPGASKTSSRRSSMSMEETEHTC

A-375 = experiment: MITF: Counter assay: A375 proliferation Measured in Cell-Based System Using Plate Reader - 2084-03_Inhibitor_Dose_DryPowder_Activity. [Related pubchem assays (depositor defined):AID488944]; format: functional; conditions: Homo sapiens
INS1 = experiment: INS-1E survival protection against cytokine death – cell-based, luminescence, retest, dose response (AID 449756); format: functional; conditions: Rattus norvegicus;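 further: cell death triggered by IL-1 beta plus TNF-alpha plus IFN-gamma mixture; protective hits raise ATP signal compared with cytokine alone wells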
[5] = biological target: ATP-dependent molecular chaperone HSP82 (Candida albicans (strain WO-1) (Yeast), UniProt C4YTQ8); experiment: steroid-induced GRE reporter decrease in yeast – S. cerevisiae, luminescence, Hsp90 inhibitor project, dose response (AID 2400); format: functional, cell-based;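 further: beta-galactosidase luminescence from glucocorticoid response element reporter as proxy for Hsp90 function; inhibitor potency where signal loss means Hsp90 inhibition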
ATP-dependent molecular chaperone HSP82, sequence (C4YTQ8 whole entry): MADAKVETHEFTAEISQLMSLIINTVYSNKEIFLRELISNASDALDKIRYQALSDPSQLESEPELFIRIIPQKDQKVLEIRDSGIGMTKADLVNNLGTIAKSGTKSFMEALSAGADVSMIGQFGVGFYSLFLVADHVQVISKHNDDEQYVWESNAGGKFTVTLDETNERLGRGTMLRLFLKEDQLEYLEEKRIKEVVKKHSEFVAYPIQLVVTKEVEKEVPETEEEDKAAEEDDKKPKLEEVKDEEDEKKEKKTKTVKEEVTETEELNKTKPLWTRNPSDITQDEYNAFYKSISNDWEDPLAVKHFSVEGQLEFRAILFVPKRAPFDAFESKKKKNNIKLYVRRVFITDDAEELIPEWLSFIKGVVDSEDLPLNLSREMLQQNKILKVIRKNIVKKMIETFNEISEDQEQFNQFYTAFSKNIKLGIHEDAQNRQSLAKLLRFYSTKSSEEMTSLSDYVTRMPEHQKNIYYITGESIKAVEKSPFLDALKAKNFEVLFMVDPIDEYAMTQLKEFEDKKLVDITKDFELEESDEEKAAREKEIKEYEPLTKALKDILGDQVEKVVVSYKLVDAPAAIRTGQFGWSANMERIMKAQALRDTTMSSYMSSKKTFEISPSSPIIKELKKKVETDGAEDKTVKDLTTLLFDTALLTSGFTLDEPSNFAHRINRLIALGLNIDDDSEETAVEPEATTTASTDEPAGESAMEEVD

[6] = NIH-3T3 fibroblast cytotoxicity, dose response, cytotoxicity control, cell-based, fluorescence, Alamar Blue, secondary assay (AID 2327); format: functional;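 further: NIH-3T3 mouse fibroblasts cultured with fluconazole at 8 µg/mL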
[7] = fluconazole-exposed Candida albicans growth modulators – fluorescence, retest, confirmation (AID 2467); format: functional, cell-based
Salmon testes DNA = experiment: acridine orange-DNA binding displacement – biochemical, fluorescence polarization, cherry-picked samples, set 2, artefact control for KSHV LANA DNA-binding inhibitor project, dose response (AID 504727); set-up: species or system Salmonidae
HeLa = experiment: viability loss in HeLa cells – cell-based, 24 h, cherry-picked samples, cytotoxicity control, dose response (AID 504726); format: functional; conditions: Homo sapiens;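 further: potency for cytotoxicity as loss of luminescence signal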
[8] = biological target: T3, Histone-lysine N-methyltransferase NSD2 (Homo sapiens, UniProt O96028); format: biochemical
T3 sequence (O96028 whole entry): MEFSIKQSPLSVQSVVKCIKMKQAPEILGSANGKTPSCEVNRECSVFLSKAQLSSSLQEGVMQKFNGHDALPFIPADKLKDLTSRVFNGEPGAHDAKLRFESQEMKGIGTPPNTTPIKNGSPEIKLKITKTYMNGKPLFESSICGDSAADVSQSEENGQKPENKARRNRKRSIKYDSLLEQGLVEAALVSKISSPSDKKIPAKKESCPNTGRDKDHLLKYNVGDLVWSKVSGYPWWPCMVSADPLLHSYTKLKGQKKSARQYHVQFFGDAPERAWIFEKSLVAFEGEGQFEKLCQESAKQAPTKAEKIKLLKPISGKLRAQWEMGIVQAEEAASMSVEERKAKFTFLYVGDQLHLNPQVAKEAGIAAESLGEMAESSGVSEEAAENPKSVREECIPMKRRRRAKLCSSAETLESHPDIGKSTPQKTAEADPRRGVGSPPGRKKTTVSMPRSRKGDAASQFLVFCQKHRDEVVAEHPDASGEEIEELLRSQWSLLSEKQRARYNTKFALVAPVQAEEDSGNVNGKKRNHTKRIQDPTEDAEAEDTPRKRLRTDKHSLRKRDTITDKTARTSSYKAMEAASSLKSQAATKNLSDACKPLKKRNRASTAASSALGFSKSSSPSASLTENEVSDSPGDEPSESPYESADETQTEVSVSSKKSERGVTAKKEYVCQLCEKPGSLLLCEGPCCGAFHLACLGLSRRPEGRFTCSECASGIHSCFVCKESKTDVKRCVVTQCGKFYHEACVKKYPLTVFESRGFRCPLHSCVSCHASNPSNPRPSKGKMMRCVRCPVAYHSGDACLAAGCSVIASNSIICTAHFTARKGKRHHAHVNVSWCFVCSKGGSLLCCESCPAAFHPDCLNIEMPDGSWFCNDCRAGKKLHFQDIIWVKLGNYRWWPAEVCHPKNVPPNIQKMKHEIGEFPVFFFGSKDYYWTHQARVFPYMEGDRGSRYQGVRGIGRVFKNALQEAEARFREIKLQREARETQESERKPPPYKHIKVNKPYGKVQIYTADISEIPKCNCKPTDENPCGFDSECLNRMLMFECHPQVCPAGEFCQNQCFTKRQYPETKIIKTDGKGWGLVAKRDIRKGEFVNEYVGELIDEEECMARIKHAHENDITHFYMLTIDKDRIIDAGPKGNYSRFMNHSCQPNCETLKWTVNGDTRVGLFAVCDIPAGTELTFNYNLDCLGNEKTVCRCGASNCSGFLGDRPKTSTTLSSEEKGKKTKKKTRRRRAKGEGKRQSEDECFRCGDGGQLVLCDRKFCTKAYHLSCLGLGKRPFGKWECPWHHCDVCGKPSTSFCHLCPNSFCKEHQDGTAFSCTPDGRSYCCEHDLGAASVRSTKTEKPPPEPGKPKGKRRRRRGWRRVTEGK

[9] = biological target: T4, Zinc finger protein mex-5 (Caenorhabditis elegans, UniProt Q9XUB2); experiment: potency of MEX-5 RNA-binding blockers – biochemical, C. elegans, fluorescence polarization, dose response (AID 1960)
T4 sequence (Q9XUB2 whole entry): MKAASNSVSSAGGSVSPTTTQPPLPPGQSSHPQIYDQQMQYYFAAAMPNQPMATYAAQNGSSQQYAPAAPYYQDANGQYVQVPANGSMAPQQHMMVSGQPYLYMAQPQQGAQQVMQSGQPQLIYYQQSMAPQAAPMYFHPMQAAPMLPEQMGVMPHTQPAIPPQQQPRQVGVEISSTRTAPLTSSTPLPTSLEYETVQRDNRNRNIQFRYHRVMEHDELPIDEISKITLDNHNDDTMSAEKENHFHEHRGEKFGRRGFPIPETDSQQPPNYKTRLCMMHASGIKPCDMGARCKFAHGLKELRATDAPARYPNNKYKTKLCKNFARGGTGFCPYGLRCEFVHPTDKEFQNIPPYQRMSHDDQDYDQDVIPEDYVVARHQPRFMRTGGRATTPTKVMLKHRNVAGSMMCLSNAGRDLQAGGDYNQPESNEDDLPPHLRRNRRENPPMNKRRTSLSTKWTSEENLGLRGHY

[10] = biological target: T5, RNA-binding protein pos-1 (Caenorhabditis elegans, UniProt G5EF15); experiment: disruptors of C. elegans POS-1 RNA interaction – biochemical, fluorescence polarization, dose response (AID 1964);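 further: purified POS-1 fused to maltose binding protein made in E. coli; potency of compounds blocking POS-1 binding to fluorescent RNA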
T5 sequence (G5EF15 whole entry): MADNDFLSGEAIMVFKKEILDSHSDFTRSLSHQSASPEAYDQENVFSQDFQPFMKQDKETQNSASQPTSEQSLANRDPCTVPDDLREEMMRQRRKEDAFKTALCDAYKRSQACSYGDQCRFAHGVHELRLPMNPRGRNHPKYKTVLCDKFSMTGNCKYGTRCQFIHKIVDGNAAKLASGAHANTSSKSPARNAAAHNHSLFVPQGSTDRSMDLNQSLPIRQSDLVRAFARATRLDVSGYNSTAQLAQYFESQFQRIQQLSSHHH

Keap1/Nrf2 = Keap1/Nrf2 (Homo sapiens, UniProt Q14145); experiment: disruptors of Keap1 binding to Nrf2 peptide – biochemical, fluorescence polarization, cherry-picked samples, dose response (AID 588683)
Keap1/Nrf2, sequence (Q16236 whole entry): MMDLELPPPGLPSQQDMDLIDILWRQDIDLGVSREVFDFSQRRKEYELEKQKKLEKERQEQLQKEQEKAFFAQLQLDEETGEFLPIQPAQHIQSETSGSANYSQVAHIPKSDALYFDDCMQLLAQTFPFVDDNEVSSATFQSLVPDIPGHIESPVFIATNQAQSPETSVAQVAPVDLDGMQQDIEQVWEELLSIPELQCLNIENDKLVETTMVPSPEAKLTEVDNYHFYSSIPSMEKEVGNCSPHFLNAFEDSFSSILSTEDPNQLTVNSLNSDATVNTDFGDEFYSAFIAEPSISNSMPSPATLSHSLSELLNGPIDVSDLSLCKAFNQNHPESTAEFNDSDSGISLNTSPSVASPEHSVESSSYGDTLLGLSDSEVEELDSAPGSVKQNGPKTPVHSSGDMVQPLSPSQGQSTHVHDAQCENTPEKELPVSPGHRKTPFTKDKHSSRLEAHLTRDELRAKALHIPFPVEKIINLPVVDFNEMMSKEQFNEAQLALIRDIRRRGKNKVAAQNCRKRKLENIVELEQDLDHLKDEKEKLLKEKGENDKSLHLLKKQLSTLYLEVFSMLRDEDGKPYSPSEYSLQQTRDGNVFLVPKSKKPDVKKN
Keap1/Nrf2, sequence (Q14145 whole entry): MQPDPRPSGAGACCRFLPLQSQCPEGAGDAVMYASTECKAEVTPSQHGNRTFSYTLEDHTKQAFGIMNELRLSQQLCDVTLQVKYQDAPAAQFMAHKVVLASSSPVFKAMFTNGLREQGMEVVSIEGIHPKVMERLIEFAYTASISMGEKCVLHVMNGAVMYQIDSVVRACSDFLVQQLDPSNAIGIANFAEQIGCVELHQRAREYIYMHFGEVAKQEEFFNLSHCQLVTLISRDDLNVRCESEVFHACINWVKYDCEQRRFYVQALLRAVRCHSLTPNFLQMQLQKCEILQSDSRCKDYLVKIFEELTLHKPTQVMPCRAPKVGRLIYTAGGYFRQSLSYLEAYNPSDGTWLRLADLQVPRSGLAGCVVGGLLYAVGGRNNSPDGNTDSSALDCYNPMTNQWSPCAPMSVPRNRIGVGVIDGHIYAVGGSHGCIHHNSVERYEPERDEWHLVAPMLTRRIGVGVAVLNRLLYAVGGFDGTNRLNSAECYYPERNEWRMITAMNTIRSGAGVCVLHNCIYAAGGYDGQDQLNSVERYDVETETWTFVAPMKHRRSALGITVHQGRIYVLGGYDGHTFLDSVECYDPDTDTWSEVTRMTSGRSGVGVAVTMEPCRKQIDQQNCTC

ORF 73 = biological target: T6, ORF 73 (Human herpesvirus 8, UniProt O40947); experiment: KSHV LANA DNA-binding disruption – biochemical, fluorescence polarization, cherry-picked samples, dose response (AID 504725); set-up: species or system Human gammaherpesvirus 8;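 further: fluorescence polarization of a labeled DNA duplex reporting LANA DNA binding; potency is for inhibitors that block LANA binding to the DNA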
T6 sequence (O40947 whole entry): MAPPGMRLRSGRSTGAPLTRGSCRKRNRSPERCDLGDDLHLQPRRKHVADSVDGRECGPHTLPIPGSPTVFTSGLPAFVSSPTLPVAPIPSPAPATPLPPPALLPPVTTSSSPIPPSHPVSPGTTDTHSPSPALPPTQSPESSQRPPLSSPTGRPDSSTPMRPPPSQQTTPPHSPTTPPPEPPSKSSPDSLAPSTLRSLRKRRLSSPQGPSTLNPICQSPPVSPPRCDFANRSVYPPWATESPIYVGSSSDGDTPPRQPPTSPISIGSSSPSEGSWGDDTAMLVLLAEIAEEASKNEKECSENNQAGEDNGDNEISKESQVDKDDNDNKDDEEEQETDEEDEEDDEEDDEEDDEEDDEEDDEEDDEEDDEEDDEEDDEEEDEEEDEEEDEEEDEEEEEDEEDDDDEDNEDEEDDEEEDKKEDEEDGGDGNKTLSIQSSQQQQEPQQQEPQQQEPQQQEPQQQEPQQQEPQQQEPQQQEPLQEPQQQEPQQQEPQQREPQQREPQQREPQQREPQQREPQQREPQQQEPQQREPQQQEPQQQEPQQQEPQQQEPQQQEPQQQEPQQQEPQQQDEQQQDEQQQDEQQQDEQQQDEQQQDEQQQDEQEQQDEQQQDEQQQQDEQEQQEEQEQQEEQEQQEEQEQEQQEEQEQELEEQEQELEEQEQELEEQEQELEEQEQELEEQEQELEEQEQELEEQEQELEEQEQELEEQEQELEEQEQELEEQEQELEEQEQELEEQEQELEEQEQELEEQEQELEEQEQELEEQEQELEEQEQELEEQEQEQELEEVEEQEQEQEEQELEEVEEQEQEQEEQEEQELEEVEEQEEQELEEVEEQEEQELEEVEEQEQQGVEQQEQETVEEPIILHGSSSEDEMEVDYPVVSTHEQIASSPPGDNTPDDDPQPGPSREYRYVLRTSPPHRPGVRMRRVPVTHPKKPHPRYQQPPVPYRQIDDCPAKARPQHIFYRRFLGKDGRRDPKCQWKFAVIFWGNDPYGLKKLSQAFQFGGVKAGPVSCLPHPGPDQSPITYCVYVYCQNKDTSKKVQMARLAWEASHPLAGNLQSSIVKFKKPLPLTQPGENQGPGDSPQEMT

Large T antigen = Large T antigen (Simian virus 40, UniProt P03070); format: functional, Betapolyomavirus macacae;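 further: Confirmatory-stage PubChem screen for compounds that inhibit SV40 T antigen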
Large T antigen, sequence (P03070 whole entry): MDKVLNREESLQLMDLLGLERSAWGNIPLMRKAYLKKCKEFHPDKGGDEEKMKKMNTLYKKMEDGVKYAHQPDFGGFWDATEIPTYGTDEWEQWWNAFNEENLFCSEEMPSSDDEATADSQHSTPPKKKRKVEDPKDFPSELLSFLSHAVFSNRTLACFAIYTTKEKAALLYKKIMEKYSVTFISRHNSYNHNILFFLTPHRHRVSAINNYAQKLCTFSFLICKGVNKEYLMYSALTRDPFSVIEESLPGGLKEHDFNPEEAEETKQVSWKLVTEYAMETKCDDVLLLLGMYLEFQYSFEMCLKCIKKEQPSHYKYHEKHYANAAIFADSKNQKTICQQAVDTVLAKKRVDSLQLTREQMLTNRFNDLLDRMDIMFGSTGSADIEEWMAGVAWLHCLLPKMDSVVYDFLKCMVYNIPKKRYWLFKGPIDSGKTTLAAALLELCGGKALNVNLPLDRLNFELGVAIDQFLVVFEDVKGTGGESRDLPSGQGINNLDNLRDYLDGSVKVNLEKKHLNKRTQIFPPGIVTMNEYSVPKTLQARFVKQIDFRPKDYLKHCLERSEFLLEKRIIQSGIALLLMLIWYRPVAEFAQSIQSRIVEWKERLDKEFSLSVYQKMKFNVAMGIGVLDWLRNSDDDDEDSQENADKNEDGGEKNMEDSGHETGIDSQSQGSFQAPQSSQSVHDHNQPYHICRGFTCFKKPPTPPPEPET

[11] = biological target: Dual specificity protein kinase CLK1 (Homo sapiens, UniProt P49759); experiment: inhibition of human CLK1 activity – biochemical, cherry-picked samples, selectivity assay for Dyrk1A inhibitor project, dose response (AID 588811)
Dual specificity protein kinase CLK1, sequence (P49759 whole entry): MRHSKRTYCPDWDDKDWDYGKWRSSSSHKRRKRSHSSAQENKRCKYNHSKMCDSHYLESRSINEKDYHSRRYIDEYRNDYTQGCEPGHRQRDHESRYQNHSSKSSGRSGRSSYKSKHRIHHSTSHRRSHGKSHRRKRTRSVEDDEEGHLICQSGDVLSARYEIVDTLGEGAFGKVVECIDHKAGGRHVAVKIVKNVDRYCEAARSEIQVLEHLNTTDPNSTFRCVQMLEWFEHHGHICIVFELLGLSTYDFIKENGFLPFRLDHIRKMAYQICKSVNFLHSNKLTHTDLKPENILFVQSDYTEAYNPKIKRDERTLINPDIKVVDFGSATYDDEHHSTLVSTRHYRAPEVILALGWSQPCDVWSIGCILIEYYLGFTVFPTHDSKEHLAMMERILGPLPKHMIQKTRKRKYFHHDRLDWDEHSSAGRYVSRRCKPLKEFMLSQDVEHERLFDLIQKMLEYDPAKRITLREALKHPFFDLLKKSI

Escherichia coli = experiment: microbe, parasite or virus in culture
[12] = biological target: Type-1 angiotensin II receptor (Homo sapiens, UniProt P30556); experiment: antagonism of angiotensin II type 1 receptor – cell-based, uHTS hits, selectivity assay for APJ receptor antagonist project, dose response (AID 463214); format: functional;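 further: antagonist potency against angiotensin II stimulated AT1 response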
Type-1 angiotensin II receptor, sequence (P30556 whole entry): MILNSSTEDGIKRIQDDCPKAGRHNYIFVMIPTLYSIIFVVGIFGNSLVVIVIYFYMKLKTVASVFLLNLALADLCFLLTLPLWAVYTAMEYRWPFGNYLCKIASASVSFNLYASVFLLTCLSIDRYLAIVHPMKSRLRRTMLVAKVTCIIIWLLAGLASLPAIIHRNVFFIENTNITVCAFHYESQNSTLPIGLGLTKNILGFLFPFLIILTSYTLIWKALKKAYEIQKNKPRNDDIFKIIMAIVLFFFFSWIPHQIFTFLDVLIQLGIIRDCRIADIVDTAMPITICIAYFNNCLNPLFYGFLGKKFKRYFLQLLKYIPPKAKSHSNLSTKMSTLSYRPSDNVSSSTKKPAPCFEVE

Beta-galactosidase = Beta-galactosidase (Escherichia coli, UniProt Q8VNN2); experiment: PubChem AID 485352; format: functional
Beta-galactosidase, sequence (Q8VNN2 whole entry): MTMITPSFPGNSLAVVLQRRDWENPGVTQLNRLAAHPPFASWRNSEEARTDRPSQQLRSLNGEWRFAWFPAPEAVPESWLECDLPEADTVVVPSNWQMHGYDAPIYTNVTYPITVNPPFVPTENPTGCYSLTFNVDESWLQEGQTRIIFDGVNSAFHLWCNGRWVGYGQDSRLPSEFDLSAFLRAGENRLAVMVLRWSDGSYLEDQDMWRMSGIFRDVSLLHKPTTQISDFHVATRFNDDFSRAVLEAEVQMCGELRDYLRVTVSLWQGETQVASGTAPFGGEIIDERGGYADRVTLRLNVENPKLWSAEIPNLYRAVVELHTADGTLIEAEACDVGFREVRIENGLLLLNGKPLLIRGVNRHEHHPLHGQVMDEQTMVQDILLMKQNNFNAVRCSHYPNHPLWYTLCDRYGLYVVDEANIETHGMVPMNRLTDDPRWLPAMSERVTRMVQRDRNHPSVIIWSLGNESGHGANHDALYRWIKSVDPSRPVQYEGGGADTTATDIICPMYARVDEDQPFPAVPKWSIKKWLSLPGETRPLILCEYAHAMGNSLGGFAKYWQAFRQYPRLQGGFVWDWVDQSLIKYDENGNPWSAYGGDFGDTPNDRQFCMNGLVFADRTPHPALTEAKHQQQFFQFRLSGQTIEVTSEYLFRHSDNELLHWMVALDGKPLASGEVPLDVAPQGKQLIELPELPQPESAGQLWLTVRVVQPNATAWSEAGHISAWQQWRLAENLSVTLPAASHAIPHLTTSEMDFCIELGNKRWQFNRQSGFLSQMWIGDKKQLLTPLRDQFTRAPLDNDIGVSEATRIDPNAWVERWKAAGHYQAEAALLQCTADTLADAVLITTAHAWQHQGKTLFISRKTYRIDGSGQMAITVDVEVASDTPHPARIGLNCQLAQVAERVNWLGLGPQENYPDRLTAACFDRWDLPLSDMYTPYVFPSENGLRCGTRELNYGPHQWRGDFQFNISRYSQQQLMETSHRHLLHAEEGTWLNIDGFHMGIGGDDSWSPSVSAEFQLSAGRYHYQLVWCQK

Compound: CCN(CC)c1ccc(/C=N/NC(=O)c2cccc(S(=O)(=O)N3CCOCC3)c2)c(O)c1
- EC50 (cells [1]): 2.85 µM (active)
- EC50 (cells [2]): 28.5 µM (active)
- EC50 [3]: > 180 µM (inactive)
- AC50 [4]: 1.52 µM (active)
- AC50 (A-375): 47.2 µM (active)
- AC50 (INS1): 0.358 µM (active)
- EC50 [5]: > 160 µM (inactive)
- EC50 [6]: 12.5 µM (inconclusive)
- EC50 [7]: 0.769 µM (active)

Compound: O=C(O)CCNc1ccc(NCCC(=O)O)c2c1C(=O)c1ccccc1C2=O
- AC50 (Salmon testes DNA): 37.8 µM (active)
- AC50 (HeLa): 35 µM (active)
- AC50 [8]: 11.2 µM (active)
- EC50 [9]: 15.3 µM (inconclusive)
- EC50 [10]: 12.9 µM (active)
- AC50 (Keap1/Nrf2): > 52 µM (inactive)
- AC50 (ORF 73): 22.8 µM (active)
- IC50 (Large T antigen): 26.7 µM (active)

Compound: FC(F)(F)c1cccc(Nc2nccc(-c3ccc4c(c3)OCO4)n2)c1
- AC50 [11]: 15.7 µM (active)

Compound: CCc1nc2nc(C)c(NS(=O)(=O)c3ccc(Cl)s3)c(O)n2n1
- AC50 (Escherichia coli): 65.8 µM (active)

Compound: O=C(OCC(=O)c1ccc(Cl)cc1Cl)c1ccc2c(c1)C(=O)N(c1cccc3ncccc13)C2=O
- IC50 [12]: 39.4 µM (not active)
- EC50 (Beta-galactosidase): > 40 µM (inactive)
